Measurements published in ChEMBL document CHEMBL1201862, “PubChem BioAssay data set” (2004).
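Five concentrations, 48 hours, 96-well plates. GI50 is the concentration that inhibits growth by half.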 The source made the active and inactive calls. Cut-off read from the data, not from the text of the source: active = GI50 up to about 1.1 µM and inactive = higher.

Columns and labels:
Assay in all cases: inhibition of tumour cell growth, NCI panel, 48 h
786-0 = test system: 786-0
A498 = test system: A498
A549 = test system: A549
ACHN = test system: ACHN
BT-549 = test system: BT-549
CAKI-1 = test system: CAKI-1
CCRF-CEM = test system: CCRF-CEM
COLO 205 = test system: COLO 205
DU-145 = test system: DU-145
EKVX = test system: EKVX
HCC 2998 = test system: HCC 2998
HCT-116 = test system: HCT-116
HCT-15 = test system: HCT-15
HL-60 = test system: HL-60
HOP-62 = test system: HOP-62
HOP-92 = test system: HOP-92
HT-29 = test system: HT-29
Hs-578T = test system: Hs-578T
IGROV-1 = test system: IGROV-1
K562 = test system: K562
KM12 = test system: KM12
LOX IMVI = test system: LOX IMVI
M14 = test system: M14
MCF7 = test system: MCF7
MDA-MB-231 = test system: MDA-MB-231
MDA-MB-435 = test system: MDA-MB-435
MDA-N = test system: MDA-N
MOLT-4 = test system: MOLT-4
Malme-3M = test system: Malme-3M
NCI-H23 = test system: NCI-H23
NCI-H460 = test system: NCI-H460
NCI-H522 = test system: NCI-H522
NCI/ADR-RES = test system: NCI/ADR-RES
OVCAR-3 = test system: OVCAR-3
OVCAR-4 = test system: OVCAR-4
OVCAR-5 = test system: OVCAR-5
OVCAR-8 = test system: OVCAR-8
PC-3 = test system: PC-3
RPMI-8226 = test system: RPMI-8226
RXF 393 = test system: RXF 393
SF-268 = test system: SF-268
SF-295 = test system: SF-295
SK-MEL-28 = test system: SK-MEL-28
SK-MEL-2 = test system: SK-MEL-2
SK-MEL-5 = test system: SK-MEL-5
SK-OV-3 = test system: SK-OV-3
SN12C = test system: SN12C
SNB-19 = test system: SNB-19
SNB-75 = test system: SNB-75
SW-620 = test system: SW-620
T47D = test system: T47D
TK-10 = test system: TK-10
U-251 = test system: U-251
UACC-257 = test system: UACC-257
UACC-62 = test system: UACC-62
UO-31 = test system: UO-31
NCI-H226 = test system: NCI-H226
SF-539 = test system: SF-539

Measured: GI50

O=C1/C(=C/c2cccc(Oc3ccccc3)c2)N=C(c2ccccc2)N1c1nc2ccc(Sc3ccccc3)cc2[nH]1
28 µM: HCT-15
inactive: 786-0 32.3 µM | A498 26.1 µM | A549 42.1 µM | ACHN 54.3 µM | BT-549 14.9 µM | CAKI-1 36.2 µM | CCRF-CEM 24.6 µM | COLO 205 16.9 µM | DU-145 27.3 µM | EKVX 44.1 µM | HCC 2998 13.3 µM | HCT-116 30.2 µM | HL-60 20.4 µM | HOP-62 28.4 µM | HOP-92 58.7 µM | HT-29 23.5 µM | Hs-578T 41.3 µM | IGROV-1 46.9 µM | K562 23.7 µM | KM12 29.6 µM | LOX IMVI 30.9 µM | M14 24.3 µM | MCF7 27.7 µM | MDA-MB-231 19.8 µM | MDA-MB-435 15.4 µM | MDA-N 16 µM | MOLT-4 33.7 µM | Malme-3M 67.8 µM | NCI-H23 12.1 µM | NCI-H460 23 µM | NCI-H522 25.2 µM | NCI/ADR-RES 20.5 µM | OVCAR-3 15.8 µM | OVCAR-4 47.3 µM | OVCAR-5 57.8 µM | OVCAR-8 29.9 µM | PC-3 29.9 µM | RPMI-8226 20.5 µM | RXF 393 24.8 µM | SF-268 37.7 µM | SF-295 19.7 µM | SK-MEL-28 41.3 µM | SK-MEL-2 17.3 µM | SK-MEL-5 24.4 µM | SK-OV-3 25.6 µM | SN12C 20.7 µM | SNB-19 35.5 µM | SNB-75 18.2 µM | SW-620 29.4 µM | T47D 23.6 µM | TK-10 25.2 µM | U-251 27.4 µM | UACC-257 29.4 µM | UACC-62 23.2 µM | UO-31 50.1 µM

CC(C)C1OC2(C)OC(=N)C1(C#N)C(C#N)(C#N)C2C (stereo not given)
inactive: 786-0 19.4 µM | A498 67.5 µM | A549 > 100 µM | ACHN 36 µM | BT-549 51.6 µM | CAKI-1 10.9 µM | CCRF-CEM 16 µM | COLO 205 14.5 µM | DU-145 28.4 µM | EKVX 18.7 µM | HCC 2998 13.7 µM | HCT-116 27.2 µM | HL-60 15.9 µM | HOP-92 17.7 µM | HT-29 16.3 µM | Hs-578T 24.3 µM | IGROV-1 > 10 µM | K562 30 µM | KM12 52 µM | LOX IMVI 19 µM | M14 14.6 µM | MCF7 18.7 µM | MDA-MB-231 15.4 µM | MDA-MB-435 37.8 µM | MDA-N 15.2 µM | MOLT-4 30.1 µM | Malme-3M 19.6 µM | NCI-H226 > 100 µM | NCI-H23 30.6 µM | NCI-H460 15.8 µM | NCI/ADR-RES 54.8 µM | OVCAR-3 17.7 µM | OVCAR-5 25.6 µM | OVCAR-8 25.8 µM | PC-3 24.6 µM | RXF 393 36.2 µM | SF-268 20.1 µM | SF-295 > 100 µM | SF-539 24.6 µM | SK-MEL-28 37.1 µM | SK-MEL-2 17.6 µM | SK-MEL-5 13.7 µM | SK-OV-3 > 100 µM | SN12C 13.9 µM | SNB-19 > 10 µM | SNB-75 32.1 µM | SW-620 26.6 µM | T47D 15 µM | TK-10 47.1 µM | U-251 24.2 µM | UACC-257 28.5 µM | UACC-62 27.6 µM | UO-31 45.7 µM
12.8 µM: HCT-15
